We go through three compounds from patent publication US12312628B2, “Metabolic control over organometallic catalysts using electroactive bacteria” (THE BOARD OF REGENTS OF THE UNIVERSITY OF TEXAS SYSTEM, priority 2018, dated 2025).

The subject of one data set is S. oneidensis MR-1. In words: Bacterial viability after polymerization (LIVE/DEAD BacLight, CFU counting). Type of data set: cell-based, Shewanella oneidensis.
In the next data set the test system is E. coli. The following applies: polymerization conditions, Cu(II/I) 2 μM.
The test system of data set [1] is S. oneidensis genomic knockout strain (ΔmtrCΔomcAΔmtrF) with BUFFER GATE/sfGFP plasmid. In words: BUFFER GATE/sfGFP reporter response to inducer. Type of data set: cell-based, Shewanella oneidensis. The following applies: various concentrations of IPTG. An excerpt: An S. oneidensis strain/plasmid system was developed that tunes extracellular electron transfer via BUFFER GATE-controlled expression of mtrC. The BUFFER GATE sets gene expression as ‘off’ in the absence of a user-defined signal (e.g., small-molecule, light, heat). However, in the signal's presence, the BUFFER GATE turns gene expression ‘on’. A BUFFER GATE was constructed by encoding the LacI repressor and Ptac promoter pairing on a plasmid, which together can modulate transcription of promoter-downstream genes based on culture concentration of the small-molecule Isopropyl β-D-1-thiogalactopyranoside or IPTG. To test the functionality and dynamic range of gene expression actuated by this BUFFER GATE, a plasmid was constructed that placed a ribozyme-insulated fluorescent reporter gene, superfolder GFP or sfGFP, downstream of the Ptac promoter. This BUFFER GATE/sfGFP plasmid was used to transform an S. oneidensis genomic knockout strain (ΔmtrCΔomcAΔmtrF) and sfGFP fluorescence was measured at various concentrations of IPTG. Using this S. oneidensis strain, 488/530 nm fluorescence varied over about 2 orders of magnitude (FIG. 11).

Procedure for S. oneidensis MR-1: Bacterial viability was determined by CFU counting and staining with the LIVE/DEAD BacLight Viability Kit (Invitrogen). For CFU counting, serial dilutions from the Cu-TPMA polymerization reaction and a control culture containing 20 mM sodium lactate and 40 mM sodium fumarate were plated onto LB agar containing 20 mM sodium lactate and 40 mM sodium fumarate, and incubated anaerobically for 18 hours. The LIVE/DEAD BacLight Viability Kit was used according to manufacturer instructions. Briefly, cells were harvested after polymerization and washed 3× with 0.85% saline by centrifugation at 6000×g for 20 min. Cells were concentrated to an OD600 of ˜2.0 and incubated with the LIVE/DEAD BacLight Bacterial Viability dye mixture in the dark for 15 minutes. Excess, unbound dye was removed by repeated centrifugation and washing with 0.85% saline (total of 5 washes). 20 μL of cells were placed on glass slides, allowed to settle, and covered with a 0.17 mm coverslip. Excess moisture was wicked from the slide edges and the coverslips were sealed with nail polish. A Zeiss Axiovert 200M Fluorescent Microscope was used to image live and dead cells at room temperature. Images were captured using 475/40 nm excitation and 530/50 nm emission for green (live) fluorescence and 560/40 nm excitation and 630/75 nm emission for red (dead) fluorescence with a 40× oil objective. Cell counts to determine the viable population percentages were quantified by thresholding using Fiji 1.0 software from at least 3 different fields of view. Representative images were background subtracted using a rolling ball radius of 10 pixels in Fiji 1.0.

Regarding `[Cu+]` [Cu(I)], the “inhibition of MR-1 growth” value with S. oneidensis MR-1 (after 24 hours of polymerization, CuSO4·5H2O and EDTA) is reported as “minimal inhibition”.

With `O.O.O.O.O.O=S(=O)([O-])[O-].[Cu+2]` [Cu(II), Cupric sulfate pentahydrate], the post-polymerization viability is reported as 86% in the data set on E. coli and 74% in the data set on S. oneidensis MR-1 (MR-1, polymerization conditions, Cu(II/I) 2 μM). The “MR-1 colony forming units (CFUs) following polymerization” value with S. oneidensis MR-1 (optimized polymerization conditions, Cu(II/I) 2 μM and below) is on record as “No significant difference”.

In the case of `CC(C)S[C@@H]1O[C@H](CO)[C@H](O)[C@H](O)[C@H]1O` [IPTG, Isopropyl β-D-1-thiogalactopyranoside], the “sfGFP 488/530 nm fluorescence variation” value in data set [1] was “about 2 orders of magnitude”.
